# Reference: patent US8124579B2, “Heat shock protein 20-related polypeptides and uses therefor” (Arizona Board of Regents, priority 2003, dated 2012)
# Tested on: Swiss 3T3 cells
# Experiment: Actin stress fibers and cell morphology, phalloidin staining
# Assay type: cell-based
# Settings: peptides 25 μM, forskolin and lysophosphatidic acid 10 μM, serum 10%, 30 minutes, phalloidin stain
# Experimental: Unless otherwise stated, all reagents were purchased from Sigma, St. Louis, Mo. Swiss Albino 3T3 fibroblasts (ATCC, Manassas, Va.) were cultured in DMEM supplemented with 10% BCS, 4 mM L-glutamine and 50 μg/ml penicillin-streptomycin and maintained at 37° C., 5% CO2. Cells were seeded and cultured overnight. Culture media was replaced with DMEM containing 0.5% BCS 1 hour prior to experimentation. Cells were incubated with the peptide analogues or reagent (LPA or forskolin) diluted in DMEM containing 0.5% BCS, 30 minutes at 37° C. Cells were then fixed in 4% paraformaldehyde, permeabilized in 0.25% Triton X-100, and blocked with 1% BSA solution for 1 hour. To determine α-actin cytoskeletal distribution, treated cells were incubated with Alexa 568 phalloidin (Molecular Probes, Eugene, Oreg.) in 1% BSA, 30 min. To determine focal adhesion protein localization, treated cells were incubated with primary monoclonal antibodies for α-actinin (1:100, Upstate, Charlottesville, Va.), vinculin (1:100, Sigma) or paxillin (1:100, BD Bioscience-Transduction Labs, San Jose, Calif.) in 1% BSA solution for 2 hours, rinsed in PBS and incubated 60 minutes with Cy3-goat IgG secondary antibody (Jackson ImmunoResearch, West Grove, Pa.). Slides were mounted and analyzed by confocal microscopy (Leica TCS SP2, Bannockburn, Ill.). […]
substance,measurement,value
lysophosphatidic acid,stress fibers and cell morphology,displayed robust stress fibers
